In test [1] the test system is wheat powdery mildew. The following applies: cited from earlier work.
Test [2] concerns wheat powdery mildew. The conditions noted are these: cited from earlier work. This is another data set of the same source.
Test [3] relates to corn rust (Puccinia sorghi). The test can be described thus: Greenhouse pot test, corn rust. Format: in vivo. The protocol: (§1) Test method: each of the test compounds in Table 1 was dispensed to 5 wt % emulsifiable concentrate (hereinafter referred to as 5% EC). The greenhouse pot test was used in each experiment, and the effective concentrations of each compound were illustrated in Table 1.
Corn rust: two-three leaf stage potted corn seedling with uniform growth was selected and made foliar spray treatment with 5% EC, the blank control sprayed with clean water was additionally arranged, three replicates were carried out. After 24 h, the leaves of the host plants were inoculated with sporangial suspensions of the fungi corn rust (Puccinia sorghi), the plants were stored in humidity chamber (temperature: lighting 25° C., dark 20° C., relative humidity 95-100%) and then transferred to greenhouse (25±1° C.) 24 h after infection. After 7 days, the screening results were investigated according to the disease incidence condition of blank control.
(§2) The investigation method: “Guidelines for the field efficacy trials of pesticides” was adopted as the grading standard, and the control effect in a unit of % was calculated based on the disease index. Disease index=Σ(number of diseased leaves at each grade×relative grade value)×100/(total number of leaves×9); Control effect (%)=(disease index of control−disease index of treated)×100/disease index of control;
(§3) The compounds provided by the present disclosure and some control compounds were tested by the same methods in the Test example 1, except that the effective concentrations of the compounds in this Test example are shown in Table 2.

Test [4] concerns soybean rust (Phakopsora pacchyrhizi Sydow). The test is described as follows: Greenhouse pot test, soybean rust. Format: in vivo. The protocol:
as §1
Soybean rust: two-leaf stage potted soybean seedling with uniform growth was selected and made foliar spray treatment with 5% EC, the blank control sprayed with clean water was additionally arranged, three replicates were carried out. After 24 h, the leaves of the host plants were inoculated with sporangial suspensions of the fungi soybean rust (Phakopsora pacchyrhizi Sydow), the plants were stored in humidity chamber (temperature 20-25° C., relative humidity>95%) and then transferred to greenhouse (25±1° C.) 8-16 h after infection. After 7 days, the screening results were investigated according to the disease incidence condition of blank control.
as §2, §3

Test [5] deals with wheat powdery mildew (Erysiphe graminis). The test can be described thus: Greenhouse pot test, wheat powdery mildew. Format: in vivo.
Text: as §1
Wheat powdery mildew: two-leaf stage potted wheat seedling with uniform growth was selected and made foliar spray treatment with 5% EC, the blank control sprayed with clean water was additionally arranged, three replicates were carried out. After 24 h, the leaves of the host plants were inoculated by shake-down method with sporangial suspensions of the fungi wheat powdery mildew (Erysiphe graminis), the plants were stored in a greenhouse (25±1° C.). After 7 days, the screening results were investigated according to the disease incidence condition of blank control.
as §2, §3

Test [6] deals with cucumber powdery mildew. The test is described as follows: Greenhouse pot test, cucumber powdery mildew. Format: in vivo. The following applies: greenhouse pot. The protocol: as §1
Cucumber powdery mildew: cucumber seedling in a true leaf period with uniform growth was selected, and dried in the shade for 24 h after spray treatment. Fresh cucumber powdery mildew spores on the cucumber leaves were collected and washed, and filtered through a double gauze to prepare a spores suspension with concentration of about 100,000/mL, then spray inoculation was applied. The test materials inoculated were moved into a greenhouse (lighting 21-23° C.), after 8 days, the grading investigation was carried out according to the disease incidence condition of blank control, and the control effect in a unit of % was calculated according to disease index.
as §2, §3

The subject of test [7] is rice sheath blight fungi (Rhizoctonia solami). The test can be described thus: Greenhouse pot test, rice sheath blight. Format: in vivo. As to the method: as §3
In addition, the test method for rice sheath blight as following steps:
The potted rice seedling with uniform growth was selected, and dried in the shade for 24 h after spray treatment, then inoculated 3 blocks of 0.25 cm^2 rice sheath blight fungi (Rhizoctonia solami) at the base of seedling by clamp inoculation bacterium block method. The test materials inoculated were moved into greenhouse (temperature: lighting 28° C., dark 25° C., relative humidity 95%), after 7 days, investigate 5 leaves of per block treatment, the grading investigation was carried out according to the disease incidence condition of sheaths and leaves of rice, “Guidelines for the field efficacy trials of pesticides” was adopted as the grading standard, the disease index was calculated according to the grading standard, and the control effect in a unit of % was calculated according to disease index.

Test [8] has as its system wheat powdery mildew. The test can be described thus: Field trial, wheat powdery mildew. Format: in vivo, Erysiphe graminis. The following applies: 100 mg/L, sprayed once. As to the method:
II. The Wheat Powdery Mildew Test Method:
(§4) Spray method: Stein and leaf spraying (Applicator: Xinkangda lithium battery electric sprayer).
Test crops: wheat (cultivars: Liaochun 10)
(§5) The test was carried out in Shenyang, the test field was loam with rich organic matters and normal management of fertilizer and water, and no other pesticide was applied during the test.
The arrangement of the test plot was random block permutation; the area of the test plot: 15 m^2; repeat times: 3 times; spray time and frequency: Sep. 17, 2018, once. Spray dosage: each treatment was repeated 3 times, the total water consumption was 8 L. No other pesticide was applied during the test.
The incidence of disease spots in each plot was investigated by diagonal selecting 4 samples/plot and 20 plants/samples, and the first leaf below the flag leaf of each plant was investigated.
(§6) The grading standard of crop disease was as follows:
(§7) Grade 0: no leaf-spot area;
(§8) Grade 1: the ratio of leaf-spot area to leaf area is less than 5%;
(§9) Grade 3: the ratio of leaf-spot area to leaf area is between 6-25%;
(§10) Grade 5: the ratio of leaf-spot area to leaf area is between 26-50%;
(§11) Grade 7: the ratio of leaf-spot area to leaf area is between 51-75%;
(§12) Grade 9: the ratio of leaf-spot area to leaf area is between 76-100%;
(§13) According to the relevant content of the “Guidelines for the field efficacy trials of pesticides of the People's Republic of China (PRC)”, the disease index was calculated according to the grading standard, and the control effect in a unit of % was calculated based on the disease index, and the test data of significance analysis was performed by using DPS evaluation system (DMRT).

The test system of the next test is soybean rust. The test can be described thus: Field trial, soybean rust. Format: in vivo, Phakopsora pacchyrhizi Sydow. The conditions noted are these: sprayed 2 times. The protocol:
III. The Soybean Rust Test Method:
as §4
Test crops: soybean (cultivars: Glycine max(L) Merr)
as §5
The arrangement of the test plot was random block permutation; the area of the test plot: 25 m^2; repeat times: 3 times; spray time and frequency: 2 times on Aug. 11, 2018 and Aug. 21, 2018 respectively. Spray dosage: each treatment was repeated 3 times, the total water consumption was 8 L. No other pesticide was applied during the test. […] 15-20 days after the second spray treatment, the control effect was investigated.
The incidence of disease spots in each plot was investigated by diagonal selecting 5 samples/plot and 20 plants/samples, 10 leaves/plant was surveyed.
as §6, §7, §8, §9, §10, §11, §12, §13

Test [9] concerns cucumber powdery mildew. The test can be described thus: Field trial, cucumber powdery mildew. The following applies: 100 mg/L, sprayed twice. Format: in vivo. As to the method:
I. Cucumber Powdery Mildew Test Method:
Spray method: Stein and leaf spray (Applicator: Xinkangda lithium battery electric sprayer).
Test crop: cucumber (cultivars: Tianjiao7)
as §5
The arrangement of the test plot was random block permutation; the area of the test plot: 15 m^2; repeat times: 3 times; spray time and frequency: period between Sep. 28, 2018 and Oct. 11, 2018, twice. Spray dosage: each treatment was repeated 3 times, the total water consumption was 8 L. No other pesticide was applied during the test. […] 15-20 days after the second treatment, the incidence of disease spots in each plot was investigated.
The incidence of disease spots in each plot was investigated by randomly selecting 4 samples/plot and 2 plants/samples, all leaves/plant, the incidence of the whole plant was recorded by counting the number of disease leaves and determining the incidence grade.
Grading standard (in units of leaves):
as §7, §8
Grade 3: the ratio of leaf-spot area to leaf area is between 6-10%;
Grade 5: the ratio of leaf-spot area to leaf area is between 11-20%;
Grade 7: the ratio of leaf-spot area to leaf area is between 21-40%;
Grade 9: the ratio of leaf-spot area to leaf area is more than 40%;
as §13

`CNC(=O)/C(=N/OC)c1ccccc1CO/N=C(C)/C=C/c1c(Cl)cccc1Cl` [fenaminstrobin]: the “activity against wheat powdery mildew in greenhouse pot test” value in the test on wheat powdery mildew [1] is “extremely high activity”. Further, the “control effect in field test” value in the test on wheat powdery mildew [2] is given as “worse”.
Regarding `Cn1cc(C(=O)Nc2cccc3c2[C@@H]2CC[C@H]3C2=C(Cl)Cl)c(C(F)F)n1` (racemic) [Benzovindiflupyr], the “Control effect (%) Corn rust” value in test [3] (1.5625 mg/L) is reported as 95%; in [3] (3.1250 mg/L), 98%. The “Control effect (%) Soybean rust” value in [4] (0.5 mg/L) is reported as 95%; in [4] (1 mg/L), 98%; in test [4] (1.5625 mg/L), 100%; in test [4] (3.1250 mg/L) it was 100%. For the same compound, the results for the “Control effect (%) Wheat powdery mildew” value (in test [5] (1.5625 mg/L); in test [5] (3.1250 mg/L); with wheat powdery mildew [8]) were 50%, 70% and 95%, respectively. Moreover, the “Control effect (%) Cucumber powdery mildew” value in the test on cucumber powdery mildew [6] (1.5625 mg/L) worked out at 20%; in the test with cucumber powdery mildew [6] (6.25 mg/L) it was 80%; with cucumber powdery mildew [6] (25 mg/L) it was 100%; in the test with cucumber powdery mildew [6] (100 mg/L), 100%. Also, the “Control effect (%) Rice sheath blight” value in test [7] (0.5 mg/L) was found to be 30%; in [7] (1 mg/L), 40%; in test [7] (1.5625 mg/L), 55%; in test [7] (3.1250 mg/L) it was 65%. For the same compound, the figures for the “Control effect (%)” value in the test with soybean rust (dosage 50 mg/L), in the test on soybean rust (dosage 75 mg/L) and in the test on soybean rust (dosage 100 mg/L) were 91.46%, 94.51% and 97.15%, respectively.
Turning to `OC(Cc1ccccc1Cl)(Cn1nc[nH]c1=S)C1(Cl)CC1` (stereo not drawn) [Prothioconazole], the pest or weed control at 0.5 µg/mL in test [4] (Glycine max, 168 h, 0.5 mg/L, read-out: Control effect (%) Soybean rust) is 95%. Also, the pest or weed control at 1 µg/mL is 100% in test [4] (Glycine max, 168 h, 1 mg/L, read-out: Control effect (%) Soybean rust); 30% in [5] (Blumeria graminis, 168 h, 1 mg/L, read-out: Control effect (%) Wheat powdery mildew); 75% in the test on cucumber powdery mildew [6] (Cucumis sativus, 192 h, 1 mg/L, read-out: Control effect (%) Cucumber powdery mildew). Besides, the pest or weed control at 2 µg/mL in test [4] (Glycine max, 168 h, 2 mg/L, read-out: Control effect (%) Soybean rust) was 100%; in test [5] (Blumeria graminis, 168 h, 2 mg/L, read-out: Control effect (%) Wheat powdery mildew), 50%; with cucumber powdery mildew [6] (Cucumis sativus, 192 h, 2 mg/L, read-out: Control effect (%) Cucumber powdery mildew), 80%. For the same compound, the pest or weed control at 4 µg/mL is 100% in [4] (Glycine max, 168 h, 4 mg/L, read-out: Control effect (%) Soybean rust); 70% in test [5] (Blumeria graminis, 168 h, 4 mg/L, read-out: Control effect (%) Wheat powdery mildew); 90% in the test with cucumber powdery mildew [6] (Cucumis sativus, 192 h, 4 mg/L, read-out: Control effect (%) Cucumber powdery mildew). The pest or weed control at 6.25 µg/mL with cucumber powdery mildew [6] (Cucumis sativus, 192 h, 6.25 mg/L, read-out: Control effect (%) Cucumber powdery mildew) is 85%. Also, the pest or weed control at 25 µg/mL with cucumber powdery mildew [6] (Cucumis sativus, 192 h, 25 mg/L, read-out: Control effect (%) Cucumber powdery mildew) turned out to be 98%. Also, in the test with cucumber powdery mildew [6] (Cucumis sativus, 192 h, 100 mg/L, read-out: Control effect (%) Cucumber powdery mildew), the pest or weed control at 100 µg/mL amounted to 100%. In the test on wheat powdery mildew [8], the “Control effect (%) Wheat powdery mildew” value came out at 93%. Moreover, the “Control effect (%)” value in the test with soybean rust (dosage 50 mg/L) is given as 91.15%.
Consider `CON(C(=O)c1cn(C)nc1C(F)F)C(C)Cc1c(Cl)cc(Cl)cc1Cl` (stereo not drawn) [Pydiflumetofen], for which, in the test with cucumber powdery mildew [9], the “Control effect (%) Cucumber powdery mildew” value was 86.0%. For the same compound, the “Control effect (%) Wheat powdery mildew” value with wheat powdery mildew [8] came out at 91.0%.
